In US20080009505A1, “Theanine derivatives, uses thereof and processes for the manufacture thereof” (Conopco Inc. d/b/a UNILEVER, priority 2006, published 2008):
Where two headings read alike, the source gives them in different places.

Format: physicochemical
Conditions: pH 4; for Remaining: buffer
Method: 0.05 M citrate buffer with a pH of 4.0 at 20.3° C. was prepared. To this buffer were added 5.35 mM theanine and 2.675 mM of the theanine dimer. The resulting solution was held at 92° C. for two weeks with small samples being taken regularly for analysis with HPLC.

Structure (SMILES)	Remaining (0 h) [mM]	Remaining (2.5 h) [mM]	Remaining (17.5 h) [mM]	Remaining (26.3 h) [mM]	Remaining (42 h) [mM]	Remaining (50 h) [mM]	Remaining (121.3 h) [mM]	Remaining (137.3 h) [mM]	Remaining (145.8 h) [mM]	Remaining (161.6 h) [mM]	Remaining (170.2 h) [mM]	Remaining (185.8 h) [mM]	Remaining (193.3 h) [mM]	Stability compared with theanine
CCNC(=O)CCC1NC(=O)C(CCC(=O)NCC)NC1=O (stereo not drawn) [Theanine Dimer, N-ethyl-3-[5-(2-ethylcarbamoyl-ethyl)-3,6-dioxo-piperazin-2-yl]-propionamide]	2.68	2.75	2.80	2.78	2.99	3.31	3.36	3.38	3.51	3.54	3.59	3.63	3.80	much more stable than theanine
CCNC(=O)CCC(N)C(=O)O (stereo not drawn) [Theanine, N-gamma-ethyl glutamine]	5.35	4.83	2.54	1.83	0.81	0.05	0.04	0.03	0.02	0.01	0.01	0.01	0.01	
